# Reference: PMC11772769, “Selective cargo and membrane recognition by SNX17 regulates its interaction with Retriever” (EMBO Reports, 2024)
# Substitutions are numbered along the chain they refer to. Read-outs that look alike come from different tables or passages of the source. Where no end group is shown, it is not given here.
# Key:
# MBP-SNX17H457A = molecular target: T1, MBP-SNX17H457A (Homo sapiens, UniProt Q15036, H457A); test: Fluorescence anisotropy binding of 5-FAM peptides to MBP-SNX17 H457A
# T1 construct: M protein marker, R Retriever complex, FL full-length; His (N, cleaved yes); made in house; host or cells: Escherichia coli BL21(DE3)
# T1 sequence (Q15036 1-470 H457A): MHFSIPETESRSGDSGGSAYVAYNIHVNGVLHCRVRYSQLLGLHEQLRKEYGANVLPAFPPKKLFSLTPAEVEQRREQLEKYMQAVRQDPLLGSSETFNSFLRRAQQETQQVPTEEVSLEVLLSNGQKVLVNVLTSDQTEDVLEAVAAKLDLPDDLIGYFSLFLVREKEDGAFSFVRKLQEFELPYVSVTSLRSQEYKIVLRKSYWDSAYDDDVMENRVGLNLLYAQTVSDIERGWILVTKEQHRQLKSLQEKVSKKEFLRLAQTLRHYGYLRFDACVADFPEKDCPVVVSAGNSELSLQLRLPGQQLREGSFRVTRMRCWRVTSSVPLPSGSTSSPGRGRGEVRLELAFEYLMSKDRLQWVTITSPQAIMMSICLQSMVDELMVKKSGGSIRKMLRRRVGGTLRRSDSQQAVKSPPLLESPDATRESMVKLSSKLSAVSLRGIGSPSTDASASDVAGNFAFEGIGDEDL
# Experimental: (§1) Lyophilized peptides were resuspended in 100 mM Hepes pH 8.0 at 5 mg/ml and further diluted in the assay buffer (50 mM Hepes pH 7.5, 300 mM NaCl, and 1 mM DTT). […] The mixture was incubated at 25 °C for at least 30 min and then transferred to 96 Flat Black plates. Fluorescence anisotropy was measured at 25 °C using Spark 10M Plate Reader (Tecan) with a 485/20 excitation filter and a 535/35 emission filter. The dissociation constants were calculated in GraphPad Prism by nonlinear regression fitting of the experimental data to a one-site total binding model. The final KD measurement is the mean of at least two independent experiments.
# MBP-SNX17N459A+F462A = molecular target: T2, MBP-SNX17N459A+F462A (Homo sapiens, UniProt Q15036, F462A/N459A); test: Fluorescence anisotropy binding of 5-FAM peptides to MBP-SNX17 N459A+F462A
# T2 construct: M protein marker, R Retriever complex, FL full-length; His (N, cleaved yes); made in house; host or cells: Escherichia coli BL21(DE3)
# T2 sequence (Q15036 1-470 N459A/F462A): T1 sequence (Q15036 1-470 H457A) with A457H, N459A, F462A
# Experimental: as §1
# MBP = MBP (Escherichia coli, UniProt P0AEX9); test: Fluorescence anisotropy, MBP negative control; type: binding
# Experimental: as §1
sequence,measurement,setting,value
KLITYDNPAYEGID [L2 14-mer],Kd,MBP-SNX17H457A,1.1 ± 0.3 µM
same,Kd,MBP-SNX17N459A+F462A,0.6 ± 0.1 µM
same,Kd,"MBP; 0.1 μM 5-FAM peptide, pH 7.5, 300 mM NaCl, 25 °C (Fig. EV3B), read-out: KD MBP (negative control)",> 32 µM
same,Kd,"MBP; 5-FAM peptide, replicate Y1, sheet KD-L2-14-mer, unit inferred, read-out: KD MBP",> 32 µM
same,Kd,"MBP; 5-FAM peptide, replicate Y2, sheet KD-L2-14-mer, unit inferred, read-out: KD MBP",> 32 µM
same,Kd,"MBP; 5-FAM peptide, replicate Y3, sheet KD-L2-14-mer, unit inferred, read-out: KD MBP",> 32 µM
